Assays:
[1] = tested on: AsPC-1 cells isolated from tumor-bearing mice; assay: Chemosensitization of cultured AsPC-1 cells isolated from xenografts; format: cell-based, human; conditions: 72 h-cultured, PL 1 μM, Chemo 0.125 μM PAC.PBP and 25 μM GTB, Pter = in vivo pretreatment
Method: FIGS. 18-25. Effect of piperlongumine and I-BET762, as GSH depleting and chemosensitizing agents, in in vitro growing human melanoma, pancreatic, breast, lung, liver, prostate, ovarian, and colorectal cancer cells. Cancer cells, isolated from Pter-treated tumor-bearing mice, were cultured as indicated under Methods. Chemotherapy (0.25 μM PAC.PBP in A2058 melanoma and MDA-MB-231 breast carcinoma cells; 0.125 μM PAC.PBP and 25 μM GTB in AsPC-1 pancreatic cancer cells; 1 μM VRB and 15 μM cisPt in A459 lung carcinoma cells; 0.15 μM DXR in HepG2 hepatocellular carcinoma cells; 15 nM DCT in PC-3 prostate carcinoma cells; 0.15 μM PAC.PBP and 25 μM CarboPt in SK-OV-3 ovarian carcinoma cells; 3 μM 5-FU, 1 μM FA and 0.6 μM IRI in HT-29 colorectal carcinoma cells) was added to the cultured flasks 24 h after seeding. […]
Human A2058, MeWo and MelJuso melanoma cells, and mouse AtT-20 pituitary corticotroph tumor cells were from the American Type Culture Collection (ATCC). […] Cell numbers were determined using a Coulter Counter (Coulter Electronic Inc., Miami, Fla.). […] Cellular viability was assessed as previously reported (Mena, S. et al. Clin Cancer Res 13, 2658-2666 (2007)), by measuring trypan blue exclusion and leakage of lactate dehydrogenase activity. […]

[2] = tested on: human breast cancer; conditions: 20 μM Pter, 24 h, in vitro; cited from earlier work

COc1cc(/C=C/c2ccc(O)cc2)cc(OC)c1 [Pter, trans-3,5-dimethoxy-4′-hydroxystilbene]
Viable cells [1]: 1249 ± 206 ×10^6 | decrease in tumor cell viability [2]: ~25%
